Experimental data as given in patent US6806249B2, “Perfume containing surfactant compositions having perfume burst when diluted” (Unilever Home & Personal Care USA, a division of Conopco, priority 2002, dated 2004).
Like-named read-outs stand apart in the source and are kept apart here. Marks after values point to notes of the source that are not given here. Each block holds one molecule with its values, some of them ahead of it.

Key:
[1] = Dilution behaviour of components of a twelve-component perfume mixture in 5 wt. % sodium laurate, normalized GC headspace (FIG. 9); format: physicochemical; settings: component of perfume mixture in 5 wt. % sodium laurate
Procedure: A typical fully formulated perfume used in a commercial product, e.g., personal wash formulation, usually is a multi-component composition in which the properties of each perfume component can vary dramatically. A typical perfume mixture in a 5 wt. % sodium laurate formulation was tested for its “perfume burst” behaviour upon dilution. The PBI values of the components in this perfume mixture vary from a large negative number (e.g., benzyl acetate, PBI=−819; PEA, PBI=−200 in sodium laurate solution) to a large positive number (e.g., gamma-methyl-ionone, PBI=1,677 in sodium laurate solution). The dilution behaviour of each component in this perfume mixture is shown in FIG. 9 (the graph represents a normalized GC measurement so the amount of burst of each molecule is clearly indicated). In this perfume mixture of twelve components, the dilution behaviour of each component is different. Each component has a unique dilution curve (GC headspace vs. dilution factor) governed by the factors (hydrophobicity, volatility, etc) discussed previously. […] For those perfumes with a moderate positive PBI (e.g., limonene, PBI=12; p-cymene=12.2 in sodium laurate solution), the perfume headspaces increases 1-2 times upon dilution.

[2] = Fragrance burst in shower liquids with different sodium laurate concentrations (FIG. 6); format: physicochemical; settings: 5% sodium laurate product compared with 10, 15 (and 20) wt.%
Procedure: Limonene (PBI=12.2) was tested in shower liquids containing sodium laurate at 5, 10, 15 and 20 wt.%, γ-Methyl lonone and menthone were tested in sodium laurate at 5, 10 and 15 wt.% (FIG. 6).

[3] = Fragrance burst in shower liquids with surfactants of different CMC (FIG. 8); format: physicochemical; settings: 5% sodium laureth sulfate (CMC=0.0011 wt/wt) compared with 5% sodium laurate (CMC=0.005 wt/wt)
Procedure: Limonene and γ-Methyl lonone were tested in two different shower liquid samples. One product was formulated with 5% sodium laurate (CMC=0.005 wt/wt) and the second with 5% sodium laureth sulfate (CMC=0.0011 wt/wt) (FIG. 8).

[4] = Critical micellization concentration (CMC) of surfactants; format: physicochemical; settings: no reference given
Source text: As noted, the perfume burst is affected not only by the perfume properties, but also by properties of the formulation in which the perfume is found. Thus, the number and type of surfactant micelles found in a surfactant solution also has an effect. […] The critical micellization concentration is defined as the surfactant concentration at which micelles begin to form from unassociated surfactant monomers (M. J. Rosen, Surfactants and Interfacial Phenomena, 2nd Ed., 1989). Conversely, in a surfactant with low critical micelle concentration (e.g., one where micelles do form easily or, stated differently, don't break apart as readily once formed), a perfume, being generally more hydrophobic, tends to stay in the surfactant more readily. As a result, the perfume will tend not to “burst” (increase perfume headspace) as readily and, to achieve more headspace, more dilution may be required. The CMC of the surfactant system also affects “perfume burst”. Thus, for example, a surfactant system of relatively low CMC (e.g., sodium lauryl ether sulfate, also known as SLES) lowers the PBI and can greatly reduce the expected “perfume burst” on dilution. By contrast, surfactant systems of relatively higher CMC (e.g., sodium laurate compared to SLES) would raise PBI and can thus increase “perfume burst” on dilution.

[5] = 50° C.; cited from earlier work

Molecule: Sodium laureth sulfonate (2EO)
CMC [5]: 0.0011*** wt./wt.

Molecule: Sodium laureth sulfonate (3EO)
CMC [5]: 0.00084*** wt./wt.

Molecule: CC(C)[C@@H]1CC[C@@H](C)CC1=O [Menthone]
dilutions needed to reach maximum fragrance burst [2]: reached with fewer dilutions in the 5% soap product

Now from value to molecule, other results behind:

perfume headspace behaviour upon dilution [1]: decrease upon dilution
Molecule: CC(=O)OCc1ccccc1 [Benzyl Acetate]

perfume headspace behaviour upon dilution [1]: as high as seven times
overall fragrance burst [3]: lower overall fragrance burst
Molecule: CC(=O)/C(C)=C/C1C(C)=CCCC1(C)C (stereo not shown) [γ-methyl ionone]
dilutions needed to reach maximum fragrance burst [2]: reached with fewer dilutions in the 5% soap product

CMC [4]: 0.00032 wt./wt.
Molecule: CCCCCCCC(=O)NCCC[N+](C)(C)CC(=O)[O-] [Caprylamidopropyl betaine]

overall fragrance burst [3]: lower overall fragrance burst
Molecule: C=C(C)[C@H]1CC=C(C)CC1 [Limonene]
dilutions needed to reach maximum fragrance burst [2]: reached with fewer dilutions in the 5% soap product
